Test results published in ChEMBL document CHEMBL4304757, “Synthetic heterocyclic candidates as promising α-glucosidase inhibitors: An overview” (Eur J Med Chem, 2019).
pIC50: −log10 of the molar value.

Columns and labels:
[1] = molecular target: Alpha glucosidase (Homo sapiens, UniProt O43451+P10253+P14410+Q2M2H8); experiment: Inhibition of alpha-glucosidase (unknown origin) using p-nitrophenyl-alpha-d-glucopyranoside as substrate preincubated for 5 mins followed by substrate addition measured after 5 mins; assay type: protein assay
[2] = Inhibition of yeast alpha-glucosidase using p-nitrophenyl-alpha-d-glucopyranoside as substrate preincubated for 10 mins followed by substrate addition measured after 30 mins; set-up: species or system Saccharomyces cerevisiae

Row | SMILES | pIC50 [1] | IC50 [1] | pIC50 [2]
1 | COc1ccc(Br)cc1/C=N/c1nnc(-c2cccc([N+](=O)[O-])c2)s1 | 4.60 to 5.64 |  | 
2 | Nc1nnc(-c2ccc(Cl)cc2Cl)s1 | 4.42 to 5.64 |  | 
3 | O=C(N/N=C/c1ccc(O)cc1O)c1cc2ccccc2oc1=O | 4.44 to 5.96 |  | 
4 | COc1ccc(O)c(/C=N/NC(=O)c2cc3ccccc3oc2=O)c1 | 4.44 to 5.96 |  | 
5 | O=[N+]([O-])c1ccccc1/C=N/c1nnc(-c2ccc(Cl)cc2)s1 | 4.60 to 5.64 |  | 
6 | Oc1ccc(/C=N/c2nnc(-c3ccc(Cl)cc3)s2)cc1 |  | 2.3 µM | 
7 | O=C(N/N=C/c1ccccn1)c1cc2ccccc2oc1=O | 4.44 to 5.96 |  | 
8 | Nc1nnc(-c2ccc(O)cc2)s1 |  | 2.3 µM | 
9 | Clc1ccc(-c2nnc(/N=C/c3ccc(Cl)cc3Cl)s2)cc1 | 4.60 to 5.64 |  | 
10 | Nc1nnc(-c2cccc([N+](=O)[O-])c2)s1 | 4.42 to 5.64 |  | 
11 | COc1cc(-c2nnc(/N=C/c3ccc(O)cc3)s2)ccc1OCc1ccccc1 | 4.60 to 5.64 |  | 
12 | O=C(N/N=C/c1ccc(F)cc1)c1cc2ccccc2oc1=O | 4.44 to 5.96 |  | 
13 | O=C(N/N=C/c1ccc([N+](=O)[O-])cc1)c1cc2ccccc2oc1=O | 4.44 to 5.96 |  | 
14 | Nc1nnc(-c2ccccc2[N+](=O)[O-])s1 | 4.42 to 5.64 |  | 
15 | Clc1ccc(-c2nnc(/N=C/c3ccc(OCc4ccccc4)cc3)s2)cc1 | 4.60 to 5.64 |  | 
16 | Cc1cccc(/C=N/NC(=O)c2cc3ccccc3oc2=O)c1 | 4.44 to 5.96 |  | 
17 | O=C(N/N=C/c1ccccc1)c1cc2ccccc2oc1=O | 4.44 to 5.96 |  | 
18 | COc1ccc(/C=N/NC(=O)c2cc3ccccc3oc2=O)cc1 | 4.44 to 5.96 |  | 
19 | Cc1ccccc1/C=N/NC(=O)c1cc2ccccc2oc1=O | 4.44 to 5.96 |  | 
20 | O=C(N/N=C/c1ccncc1)c1cc2ccccc2oc1=O | 4.44 to 5.96 |  | 
21 | COc1ccc(Br)cc1/C=N/c1nnc(-c2ccc(Cl)cc2)s1 | 4.60 to 5.64 |  | 
22 | O=C(N/N=C/c1cccc(F)c1)c1cc2ccccc2oc1=O | 4.44 to 5.96 |  | 
23 | O=[N+]([O-])c1ccc(/C=N/c2nnc(-c3ccc(Cl)cc3)s2)cc1 | 4.60 to 5.64 |  | 
24 | Cc1ccc(/C=N/NC(=O)c2cc3ccccc3oc2=O)cc1 | 4.44 to 5.96 |  | 
25 | COc1ccc(-n2c(-c3cn(-c4ccccc4)nc3-c3cc4ccccc4oc3=O)nc(-c3ccccc3)c2-c2ccccc2)cc1 |  |  | 4.34 to 5.60

Row | SMILES | pIC50 [1] | IC50 [1] | pIC50 [2]
26 | Cc1cc2nc(-c3ccc(C(=O)NNC(=S)Nc4ccc(C(F)(F)F)cc4)cc3)[nH]c2cc1C |  |  | 3.53 to 4.46
27 | Cc1cc2nc(-c3ccc(C(=O)N/N=C/c4cccc(Cl)c4)cc3)[nH]c2cc1C |  |  | 3.75 to 5.08
28 | Cc1cc2nc(-c3ccc(C(=O)NNC(=S)Nc4ccc(Cl)c(Cl)c4)cc3)[nH]c2cc1C |  |  | 3.53 to 4.46
29 | Cc1ccc(/C=N/NC(=O)c2ccc(-c3nc4cc(C)c(C)cc4[nH]3)cc2)cc1 |  |  | 3.75 to 5.08
30 | Cc1cc2nc(-c3ccc(C(=O)NNC(=S)Nc4ccc(Cl)cc4)cc3)[nH]c2cc1C |  |  | 3.53 to 4.46
31 | COc1ccc(-n2c(-c3cn(-c4ccccc4)nc3-c3cc4cc(Br)ccc4oc3=O)nc(-c3ccccc3)c2-c2ccccc2)cc1 |  |  | 4.34 to 5.60
32 | O=C(N/N=C/c1ccccc1F)c1cc2ccccc2oc1=O | 4.44 to 5.96 |  | 
33 | Cc1cc2nc(-c3ccc(C(=O)NNC(=S)Nc4ccc(F)cc4)cc3)[nH]c2cc1C |  |  | 3.53 to 4.46
34 | Cc1cc2nc(-c3ccc(C(=O)N/N=C/c4ccc(Cl)cc4)cc3)[nH]c2cc1C |  |  | 3.75 to 5.08
35 | COc1ccc(O)c(/C=N/NC(=O)c2ccc(-c3nc4cc(C)c(C)cc4[nH]3)cc2)c1 |  |  | 5.00 to 5.08
36 | Clc1ccc(-c2nn(-c3ccccc3)cc2-c2nc(-c3ccccc3)c(-c3ccccc3)[nH]2)cc1 |  |  | 4.64 to 5.57
37 | Cc1cc2nc(-c3ccc(C(=O)N/N=C/c4ccco4)cc3)[nH]c2cc1C |  |  | 3.75 to 5.08
38 | Cc1nn(-c2ccc([N+](=O)[O-])cc2)c(C)c1-c1nc(-c2ccccc2)c(-c2ccccc2)[nH]1 |  |  | 4.64 to 5.57
39 | O=c1oc2ccc(Br)cc2cc1-c1nn(-c2ccccc2)cc1-c1nc(-c2ccccc2)c(-c2ccccc2)n1-c1ccc(Cl)cc1 |  |  | 5.60
40 | O=C(N/N=C/c1ccccc1[N+](=O)[O-])c1cc2ccccc2oc1=O | 4.44 to 5.96 |  | 
41 | O=[N+]([O-])c1ccc(-n2cc(-c3nc(-c4ccccc4)c(-c4ccccc4)[nH]3)c(-c3ccccc3)n2)cc1 |  |  | 4.64 to 5.57
42 | COc1ccc(/C=N/NC(=O)c2ccc(-c3nc4cc(C)c(C)cc4[nH]3)cc2)cc1O |  |  | 3.75 to 5.08
43 | Cc1cc2nc(-c3ccc(C(=O)N/N=C/c4ccc(O)cc4O)cc3)[nH]c2cc1C |  |  | 5.00 to 5.08
44 | Nc1nnc(-c2ccc([N+](=O)[O-])cc2)s1 | 4.42 to 5.64 |  | 
45 | CN(C)c1ccc(-c2nnc(N)s2)cc1 | 4.42 to 5.64 |  | 
46 | Cc1cc2nc(-c3ccc(C(=O)N/N=C/c4cc(O)c(O)c(O)c4)cc3)[nH]c2cc1C |  |  | 5.08
47 | COc1cccc(-c2nnc(N)s2)c1OC | 4.42 to 5.64 |  | 
48 | Nc1nnc(-c2ccc(Cl)cc2)s1 | 4.42 to 5.64 |  | 
49 | O=[N+]([O-])c1cccc(-c2nn(-c3ccccc3)cc2-c2nc(-c3ccccc3)c(-c3ccccc3)[nH]2)c1 |  |  | 4.64 to 5.57
50 | COc1ccc(/C=N/NC(=O)c2ccc(-c3nc4cc(C)c(C)cc4[nH]3)cc2)cc1OC |  |  | 3.75 to 5.08

Row | SMILES | pIC50 [1] | IC50 [1] | pIC50 [2]
51 | O=c1oc2ccccc2cc1-c1nn(-c2ccccc2)cc1-c1nc(-c2ccccc2)c(-c2ccccc2)[nH]1 |  |  | 5.57
52 | Cc1cccc(/C=N/NC(=O)c2ccc(-c3nc4cc(C)c(C)cc4[nH]3)cc2)c1 |  |  | 3.75 to 5.08
53 | Cc1ccc(NC(=S)NNC(=O)c2ccc(-c3nc4cc(C)c(C)cc4[nH]3)cc2)cc1 |  |  | 3.53 to 4.46
54 | Nc1nnc(-c2ccc(Cl)c(OCc3ccccc3)c2)s1 | 4.42 to 5.64 |  | 
55 | Cc1cc2nc(-c3ccc(C(=O)N/N=C/c4cc(O)ccc4O)cc3)[nH]c2cc1C |  |  | 5.00 to 5.08
56 | O=[N+]([O-])c1cccc(-c2nnc(/N=C/c3ccc(Cl)cc3Cl)s2)c1 | 4.60 to 5.64 |  | 
57 | O=c1oc2ccccc2cc1-c1nn(-c2ccccc2)cc1-c1nc(-c2ccccc2)c(-c2ccccc2)n1-c1ccc(Br)cc1 |  |  | 4.34 to 5.60
58 | Cc1cc2nc(-c3ccc(C(=O)NNC(=S)Nc4cccc([N+](=O)[O-])c4)cc3)[nH]c2cc1C |  |  | 3.53 to 4.46
59 | Brc1ccc(-c2nn(-c3ccccc3)cc2-c2nc(-c3ccccc3)c(-c3ccccc3)[nH]2)cc1 |  |  | 4.64 to 5.57
60 | COc1ccc(/C=N/NC(=O)c2cc3ccccc3oc2=O)c(O)c1 | 4.44 to 5.96 |  | 
61 | COc1cccc(/C=N/NC(=O)c2ccc(-c3nc4cc(C)c(C)cc4[nH]3)cc2)c1 |  |  | 3.75 to 5.08
62 | c1ccc(-c2nn(-c3ccccc3)cc2-c2nc(-c3ccccc3)c(-c3ccccc3)[nH]2)cc1 |  |  | 4.64 to 5.57
63 | Cc1cc2nc(-c3ccc(C(=O)N/N=C/c4ccccc4C)cc3)[nH]c2cc1C |  |  | 3.75 to 5.08
64 | COc1ccc(Br)cc1-c1nnc(N)s1 | 4.42 to 5.64 |  | 
65 | O=[N+]([O-])c1ccc(-c2nn(-c3ccccc3)cc2-c2nc(-c3ccccc3)c(-c3ccccc3)[nH]2)cc1 |  |  | 4.64 to 5.57
66 | Cc1cc2nc(-c3ccc(C(=O)N/N=C/c4ccc([N+](=O)[O-])cc4)cc3)[nH]c2cc1C |  |  | 3.75 to 5.08
67 | Cc1cc2nc(-c3ccc(C(=O)N/N=C/c4ccccc4O)cc3)[nH]c2cc1C |  |  | 3.75 to 5.08
68 | CCCn1c(-c2cn(-c3ccccc3)nc2-c2cc3ccccc3oc2=O)nc(-c2ccccc2)c1-c1ccccc1 |  |  | 4.34 to 5.60
69 | O=c1oc2ccccc2cc1-c1nn(-c2ccccc2)cc1-c1nc(-c2ccccc2)c(-c2ccccc2)n1-c1ccc(Cl)cc1 |  |  | 4.34 to 5.60
70 | Cc1cc2nc(-c3ccc(C(=O)N/N=C/c4ccc(O)cc4)cc3)[nH]c2cc1C |  |  | 3.75 to 5.08
71 | Cc1cc2nc(-c3ccc(C(=O)NNC(=S)Nc4ccccc4F)cc3)[nH]c2cc1C |  |  | 3.53 to 4.46
72 | c1ccc(-c2ccc(-c3nn(-c4ccccc4)cc3-c3nc(-c4ccccc4)c(-c4ccccc4)[nH]3)cc2)cc1 |  |  | 4.64 to 5.57
73 | Cc1cc2nc(-c3ccc(C(=O)N/N=C/c4ccccn4)cc3)[nH]c2cc1C |  |  | 3.75 to 5.08
